One compound from PMC8200523, “Designing and Development of FRET-Based Nanosensor for Real Time Analysis of N-Acetyl-5-Neuraminic Acid in Living Cells” (Frontiers in Nutrition, 2021) can be followed below.

Test [1] addresses FLIP-SA (ECFP-SiaP-Venus); sialic acid periplasmic binding protein SiaP (Haemophilus influenzae, UniProt P44542, R150D). To be noted: PBS 20 mM, pH 6.5-7.0; sensor 0.20 mg/ml.
In test [2] the target is FLIP-SA (ECFP-SiaP-Venus); sialic acid periplasmic binding protein SiaP (Haemophilus influenzae, UniProt P44542, E90N). To be noted: PBS 20 mM, pH 6.5-7.0; sensor 0.20 mg/ml.
FLIP-SA (ECFP-SiaP-Venus); sialic acid periplasmic binding protein SiaP (Haemophilus influenzae, UniProt P44542, E90N), sequence (P44542 24-329 E90N): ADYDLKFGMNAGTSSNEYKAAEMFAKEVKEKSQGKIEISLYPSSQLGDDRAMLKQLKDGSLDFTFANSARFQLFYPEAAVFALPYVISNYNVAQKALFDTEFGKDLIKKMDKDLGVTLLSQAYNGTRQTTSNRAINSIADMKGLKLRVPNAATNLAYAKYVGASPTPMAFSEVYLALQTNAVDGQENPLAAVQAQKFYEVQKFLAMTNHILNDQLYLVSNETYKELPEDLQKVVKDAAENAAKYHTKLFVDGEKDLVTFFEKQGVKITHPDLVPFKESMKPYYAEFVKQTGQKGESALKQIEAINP
For test [3], the target named is FLIP-SA (ECFP-SiaP-Venus); sialic acid periplasmic binding protein SiaP (Haemophilus influenzae, UniProt P44542, D72K). To be noted: PBS 20 mM, pH 6.5-7.0; sensor 0.20 mg/ml.
FLIP-SA (ECFP-SiaP-Venus); sialic acid periplasmic binding protein SiaP (Haemophilus influenzae, UniProt P44542, D72K), sequence (P44542 24-329 D72K): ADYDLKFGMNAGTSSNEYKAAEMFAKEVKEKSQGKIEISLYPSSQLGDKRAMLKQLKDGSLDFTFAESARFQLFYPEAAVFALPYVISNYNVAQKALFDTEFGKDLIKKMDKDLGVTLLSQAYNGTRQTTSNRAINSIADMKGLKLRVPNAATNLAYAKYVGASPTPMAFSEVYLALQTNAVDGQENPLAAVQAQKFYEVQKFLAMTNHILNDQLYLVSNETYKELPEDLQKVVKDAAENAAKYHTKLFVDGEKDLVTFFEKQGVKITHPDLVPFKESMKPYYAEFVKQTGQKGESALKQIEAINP
In test [4] the target is T1, FLIP-SA (ECFP-SiaP-Venus); sialic acid periplasmic binding protein SiaP (Haemophilus influenzae, UniProt P44542).
T1 construct: SiaP without signal peptide and stop codon, inserted at KpnI site between ECFP (N-term) and Venus (C-term); His6 tag of pRSET-B; E. coli BL21(DE3), Ni-NTA
T1 sequence (P44542 24-329): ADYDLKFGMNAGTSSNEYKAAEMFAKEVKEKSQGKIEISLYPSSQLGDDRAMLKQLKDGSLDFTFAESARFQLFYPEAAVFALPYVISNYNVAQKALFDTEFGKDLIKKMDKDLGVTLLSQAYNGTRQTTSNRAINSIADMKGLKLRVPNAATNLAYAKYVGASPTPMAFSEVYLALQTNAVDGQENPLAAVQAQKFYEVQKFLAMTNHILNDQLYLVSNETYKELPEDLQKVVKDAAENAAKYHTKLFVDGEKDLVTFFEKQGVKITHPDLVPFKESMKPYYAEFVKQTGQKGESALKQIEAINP
The test can be described thus: FRET ratio ([…] nm) titration of purified ECFP-SiaP-Venus sensor. To be noted: PBS 20 mM, pH 6.5-7.0; sensor 0.20 mg/ml; NeuAc 1 nM-1 M; text prints ~157 μM.

In general, Kd refers to the free concentration of one partner at which half of the binding sites on the other are occupied at equilibrium, for simple one-to-one binding.

FLIP-SA (ECFP-SiaP-Venus); sialic acid periplasmic binding protein SiaP (Haemophilus influenzae, UniProt P44542, R150D), sequence (P44542 24-329 R150D): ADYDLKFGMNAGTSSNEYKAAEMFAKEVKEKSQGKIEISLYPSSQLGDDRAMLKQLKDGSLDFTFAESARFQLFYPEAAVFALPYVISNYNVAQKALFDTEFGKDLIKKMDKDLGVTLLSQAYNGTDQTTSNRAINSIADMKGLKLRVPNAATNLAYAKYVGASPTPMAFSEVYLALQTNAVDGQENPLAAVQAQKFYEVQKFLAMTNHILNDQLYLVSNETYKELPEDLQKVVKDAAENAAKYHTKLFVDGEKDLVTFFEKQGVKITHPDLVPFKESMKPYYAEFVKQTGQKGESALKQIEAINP

Take `CC(=O)N[C@H]1[C@H]([C@H](O)[C@H](O)CO)OC(O)(C(=O)O)C[C@@H]1O` (stereo partly shown) [NeuAc]: the Kd in test [1] was 0.51 µM; in test [2] it was 600 µM; in test [3] it was 0.013 µM; in test [4] it was 157 µM.
